Paper PMC9268591, “Anti-Inflammatory, Analgesic and Antioxidant Potential of New (2S,3S)-2-(4-isopropylbenzyl)-2-methyl-4-nitro-3-phenylbutanals and Their Corresponding Carboxylic Acids through In Vitro, In Silico and In Vivo Studies” (Molecules, 2022)
“And” between values parts separate entries of the source, which are not always exact repeats. Equal entries are not always repeated. Marks after values point to notes of the source that are not given here.

Assays:
[1] = test system: mice; test: Formalin-induced paw-licking test; conditions: 5 mg/kg i.p.
Procedure: Swiss albino mice of both sexes with an average weight of 30 to 35 g were obtained from the respective section of NIH (National Institute of Health) Islamabad, Pakistan.
The early phase was initially five minutes, while the late phase was 15-30 min. In both the phases, the mice were under observation for licking. As per the protocols, naloxone (2 mg/kg), indomethacin (10 mg/kg) and morphine (5 mg/kg) were used [28].

[2] = test system: mice; test: Hot plate test; set-up: species or system Swiss albino mice; conditions: mouse, in vivo
[3] = test system: albino mice; test: Acetic acid induced writhing test; format: in vivo, Swiss albino mice; conditions: standard drug 10 mg/kg
Procedure: The acetic induced analgesic assay on the compounds FM10 and FM12 was performed to determine the role of the peripheral pathway. The albino mice of both sexes were divided into two groups. Compounds FM10 and FM12 were administered to both the groups in doses of 25 and 50 mg/kg. After 1 h, acetic acid was injected intraperitoneally in the strength of 10 mL/kg. The negative control was Tween 80 1% solution in the strength of 10 mL/kg. […] The activities in animals were determined from the number of stretchings and writings.

[4] = test system: albino mice; test: Carrageenan-induced inflammation; format: in vivo, Swiss albino mice; conditions: standard aspirin (100 mg/kg in method)
Procedure: After the acute toxicity studies, the carrageenan-induced inflammation assay was performed on the compounds having a safety profile within limit. Forty (40) albino mice of both sexes were alienated into five different groups, with eight mice in each group. Group I was tagged as the negative control group and was administered dimethylsulfoxide (10 mL/kg, 10% v/v) and phosphate buffer (150 µL). Group II was tagged as the standard/positive control group and received a dose of aspirin (100 mg/kg in 0.9% normal saline). The remaining groups (III, IV and V) were tagged as experimental groups and received synthesized compounds (25, 50 and 100 mg/kg in DMSO) and Tween-80 in normal saline. After half an hour, carrageenan suspension (0.05 mL, 1% w/v in saline) was injected into the animals. After the injection of the irritant/carrageenan, the inflammation in the paws was measured by a plethysmometer in intervals (1 to 5 h). The inflammation in the paws of animals in different groups was compared with that of the vehicle, and the percent anti-inflammatory activities were recorded as per the standard method.

Row | SMILES | Percent (%) inhibition, 0–5 min ([1]; early phase) | Time spent (licking) 0–5 min ([1]; early phase) [s] | Percent (%) inhibition, 0–5 min ([1]; early phase, listed as morphine) [%] | Percent (%) inhibition, 15–30 min ([1]; late phase) | Time spent (licking) 15–30 min ([1]; late phase) [s] | Percent (%) inhibition, 15–30 min ([1]; late phase, listed as morphine) [%] | Reaction time on hot plate [2] | Mean inhibition of writhes [3] [%] | Anti-inflammatory activity, carrageenan assay ([4]; first hour) [%] | Anti-inflammatory activity, carrageenan assay ([4]; fourth hour) [%]
1 | CN1CC[C@]23c4c5ccc(O)c4O[C@H]2[C@@H](O)C=C[C@H]3[C@H]1C5 [Morphine] | 88.64 *** % | 6.50 ± 0.78 | 88.64 | 93.81 *** % | 4.83 ± 0.62 | 93.81 | 12.88 ± 0.26 min and 12.31 ± 0.62 min and 11.86 ± 0.87 min |  |  | 
2 | CC(=O)Oc1ccccc1C(=O)O [aspirin, acetylsalicylic acid] |  |  |  |  |  |  |  | 73.01 | 52.77 | 61.43
